# From ChEMBL document CHEMBL4359811, “Development of Potent and Selective Pyrazolopyrimidine IRAK4 Inhibitors” (J Med Chem, 2019)
# Assays:
# [1] = Kinetic aqueous solubility of the compound in PBS buffer at pH 7.4 incubated for 24 hrs under shaking condition by LC-CLND assay; type: physicochemical; conditions: PBS buffer, pH 7.4; read-out: Kinetic_solubility
# [2] = biological target: T1, Interleukin-1 receptor-associated kinase 4 (Homo sapiens, UniProt Q9NWZ3); test: Inhibition of IRAK4 in human THP1-Xblue-MD2-CD14 cells assessed as reduction in LPS-induced NFkappaB transcription by measuring alkaline phosphatase level preincubated for 1 hr followed by LPS stimulation and measured after 20 hrs by quanti-blue reagent based reporter assay
# T1 sequence (Q9NWZ3 whole entry): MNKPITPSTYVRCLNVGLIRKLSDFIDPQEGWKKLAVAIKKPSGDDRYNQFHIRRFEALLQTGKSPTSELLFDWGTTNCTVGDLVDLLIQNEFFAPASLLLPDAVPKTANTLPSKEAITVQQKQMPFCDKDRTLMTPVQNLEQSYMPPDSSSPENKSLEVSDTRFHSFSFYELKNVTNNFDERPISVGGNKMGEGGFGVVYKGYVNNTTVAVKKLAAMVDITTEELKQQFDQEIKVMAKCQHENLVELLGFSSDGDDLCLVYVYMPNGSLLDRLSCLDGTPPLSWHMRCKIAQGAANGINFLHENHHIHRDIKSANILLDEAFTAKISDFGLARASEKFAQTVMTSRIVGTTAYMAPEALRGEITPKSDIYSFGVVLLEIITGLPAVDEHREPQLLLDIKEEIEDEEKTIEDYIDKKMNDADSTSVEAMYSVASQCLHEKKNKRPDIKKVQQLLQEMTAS
# [3] = Apparent permeability from apical to basolateral side in MDCK cells at 10 uM incubated for 180 mins and measured up to 180 min by LC-MS/MS analysis; type: ADME, cell-based, Canis lupus familiaris; conditions: dog
# [4] = Lipophilicity, log D of the compound; type: physicochemical; conditions: octanol/water
# [5] = biological target: T1, Interleukin-1 receptor-associated kinase 4; test: Inhibition of human recombinant full length His6-tagged IRAK4 expressed in baculovirus expression system using H-KKARFSRFAGSSPSQSSMVAR as substrate incubated for 90 mins by fluorescence polarisation assay
# [6] = biological target: Interleukin-1 receptor-associated kinase 1 (Homo sapiens, UniProt P51617); test: Inhibition of human recombinant full length N-terminal His6-tagged IRAK1 (Argl94 to Ser712 residues) expressed in insect cells using H-KKARFSRFAGSSPSQSSMVAR as substrate incubated for 60 mins by fluorescence polarisation assay
# Chain of Interleukin-1 receptor-associated kinase 1 (P51617 whole entry): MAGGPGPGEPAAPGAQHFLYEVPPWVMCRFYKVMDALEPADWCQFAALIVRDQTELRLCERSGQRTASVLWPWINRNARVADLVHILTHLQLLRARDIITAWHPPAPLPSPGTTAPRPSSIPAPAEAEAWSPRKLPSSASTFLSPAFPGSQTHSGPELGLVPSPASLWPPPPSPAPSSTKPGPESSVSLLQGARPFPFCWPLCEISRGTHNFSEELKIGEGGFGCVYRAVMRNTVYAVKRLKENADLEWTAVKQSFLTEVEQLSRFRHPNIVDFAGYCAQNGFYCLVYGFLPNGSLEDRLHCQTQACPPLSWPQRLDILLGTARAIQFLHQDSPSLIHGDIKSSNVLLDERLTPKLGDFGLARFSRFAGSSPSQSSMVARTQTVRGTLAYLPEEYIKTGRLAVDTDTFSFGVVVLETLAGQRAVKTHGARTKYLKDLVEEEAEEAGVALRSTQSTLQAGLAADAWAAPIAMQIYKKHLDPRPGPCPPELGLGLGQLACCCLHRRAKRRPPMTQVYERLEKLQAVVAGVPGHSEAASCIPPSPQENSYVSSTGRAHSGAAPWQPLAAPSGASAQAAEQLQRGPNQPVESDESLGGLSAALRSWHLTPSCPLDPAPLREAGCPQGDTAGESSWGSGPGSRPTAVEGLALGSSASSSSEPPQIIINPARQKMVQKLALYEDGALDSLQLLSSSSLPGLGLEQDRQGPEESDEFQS
# Homo sapiens = species: Homo sapiens; test: Selectivity ratio, ratio of Ki for human recombinant full length N-terminal His6-tagged IRAK1 (Argl94 to Ser712 residues) expressed in insect cells to Ki for human recombinant full length His6-tagged IRAK4 expressed in baculovirus expression system
# [7] = Cytotoxicity against human THP1-Xblue-MD2-CD14 cells assessed as reduction in cell viability up to 20 uM preincubated for 1 hr followed by LPS stimulation and measured after 20 hrs; type: cell-based
# [8] = biological target: T1, Interleukin-1 receptor-associated kinase 4; test: Inhibition of recombinant IRAK4 (unknown origin) using KKARFSRFAGSSPSQSSMVAR as substrate in presence of [gamma33P]-ATP by liquid scintillation counting method
# [9] = biological target: T2, Interleukin-1 receptor-associated kinase 4 (Homo sapiens) (UniProt Q9NWZ3); test: Inhibition of human recombinant full length His6-tagged IRAK4 expressed in baculovirus expression system at 1 uM relative to control
# T2 sequence (whole entry): T1 sequence (Q9NWZ3 whole entry)
# [10] = Protein binding in human plasma at 5 uM incubated for 4 hrs by LC-MS/MS analysis; type: ADME, cell-free; conditions: read-out: PPB (converted)
# [11] = Protein binding in mouse plasma at 5 uM incubated for 4 hrs by LC-MS/MS analysis; type: ADME, cell-free; conditions: read-out: PPB (converted)
# [12] = Blood clearance in mouse at 1 mg/kg, iv; type: ADME, organism-based; conditions: whole blood
# [13] = Volume of distribution at steady state in mouse at 1 mg/kg, iv; type: ADME, organism-based; conditions: in vivo, read-out: Vdss
# [14] = Cmax in mouse at 5 mg/kg, po; type: ADME, organism-based; set-up: dose 5 mg/kg, route oral; conditions: in vivo, BLD = below limit of detection
# [15] = AUC (infinity) in mouse at 5 mg/kg, po; type: ADME, organism-based; set-up: dose 5 mg/kg, route oral, time infinity; conditions: in vivo, BLD = below limit of detection
# [16] = Oral bioavailability in mouse at 5 mg/kg; type: ADME, organism-based; conditions: in vivo, BLD = below limit of detection
SMILES,solubility kinetic at 24 h [1] [µM],IC50 [2] [nM],"Papp A→B at 3 h, 10 µM [3] [×10⁻⁶ cm/s]",Ki [5] [nM],Ki [6] [nM],other results
CC1(C)Cc2cc(NC(=O)c3cnn4cc(C(N)=O)cnc34)c(N3CCOCC3)cc2O1,1,56,0.7,,,
O=C(Nc1cc2cccnc2cc1N1CCC(CO)CC1)c1cnn2cccnc12,1,35,,1.7,400,logD [4]: 3.1; Ratio Ki (Homo sapiens): > 200; Activity [7]: Non-Toxic
CC1(C)Cc2cc(NC(=O)c3cnn4c(O)ccnc34)c(N3CCOCC3)cc2O1,77,> 20000,,> 8400,,
COc1cc2ncccc2cc1NC(=O)c1cnn2cccnc12,,370,,52,2800,
CC1(C)Cc2cc(NC(=O)c3cnn4cc(C#N)cnc34)c(N3CCOCC3)cc2O1,1,84,2.7,6.1,,
CC1(C)Cc2cc(NC(=O)c3cnn4cccnc34)c(N3CCNCC3)cc2O1,110,56,,,,
CC1(C)Cc2cc(NC(=O)c3cnn4cccnc34)c(N3CCOCC3)cc2O1,1,170,14,5.3,,Ratio Ki (Homo sapiens): 220
CC1(C)Cc2cc(NC(=O)c3cnn4cccnc34)c(N3CCC(C(O)C(F)(F)F)CC3)cc2O1 (stereo not drawn),1,56,,,,
O=C(Nc1cc2oc(N3CCOCC3)nc2cc1N1CCC(CO)CC1)c1cnn2cccnc12,,60,,1.2,340,
COc1cc2cccnc2cc1NC(=O)c1cnn2cccnc12,,,,,,Ki [8]: > 30000 nM
CC1(C)Cc2cc(NC(=O)c3cnn4cc(C5CC5)cnc34)c(N3CCOCC3)cc2O1,1,> 20000,,,,
CC(C)(O)[C@]1(C)Cc2cc(NC(=O)c3cnn4cccnc34)c(N3CCOCC3)cc2O1,150,170,21,7.3,,
NCC1CCN(c2cc3ncccc3cc2NC(=O)c2cnn3cccnc23)CC1,22,41,,2,510,logD [4]: 0.79; Ratio Ki (Homo sapiens): > 200; Activity [7]: Non-Toxic
CC1(C)Cc2cc(NC(=O)c3cnn4cc(O)cnc34)c(N3CCOCC3)cc2O1,3.1,330,14,3.2,,
O=C(Nc1cc2ccc(N3CCOCC3)nc2cc1N1CCCCC1)c1cnn2cccnc12,,1300,,290,4700,
CN1CCC2(CC1)Cc1cc(NC(=O)c3cnn4cccnc34)c(N3CCOCC3)cc1O2,130,230,13,7.4,,
COc1cc2ccccc2cc1NC(=O)c1cnn2cccnc12,,,,,,Ki [8]: 610 nM
O=C(Nc1cc2[nH]c(N3CCOCC3)nc2cc1N1CCC(CO)CC1)c1cnn2cccnc12,,250,,1.7,> 5500,
CC1(C)Cc2cc(NC(=O)c3cnn4cccnc34)c(N3CCC(CO)CC3)cc2O1,95,38,16,,,Ratio Ki (Homo sapiens): 210

SMILES,solubility kinetic at 24 h [1] [µM],IC50 [2] [nM],"Papp A→B at 3 h, 10 µM [3] [×10⁻⁶ cm/s]",Ki [5] [nM],Ki [6] [nM],other results
CN(C)c1nc2cc(N3CCC(CO)CC3)c(NC(=O)c3cnn4cccnc34)cc2s1,,53,,0.5,95,inhibition [9]: > 70%
CC1(C)Cc2cc(NC(=O)c3cnn4cc(OC(F)F)cnc34)c(N3CCOCC3)cc2O1,1,> 20000,0.6,34,,
CC1(C)Cc2cc(NC(=O)c3cnn4cccnc34)c(N3CCCC(O)CC3)cc2O1 (stereo not drawn),25,130,,,,
O=C(Nc1cc2sc(N3CCOCC3)nc2cc1N1CCC(CO)CC1)c1cnn2cccnc12,,8,8.4,0.5,24,"fraction unbound at 4 h, 5 µM [10]: 0.02; fraction unbound at 4 h, 5 µM [11]: 0.01; clearance [12]: 18 mL/min/kg; Vd [13]: 0.4 L/kg; Cmax [14]: Bld; AUC [15]: Bld; F [16]: Bld"
O=C(Nc1cc2[nH]cnc2cc1N1CCC(CO)CC1)c1cnn2cccnc12,,330,,6.7,> 5700,
O=C(Nc1cc2cnc(N3CCOCC3)nc2cc1N1CCCCC1)c1cnn2cccnc12,,3000,,170,5400,
O=C(Nc1cc2cccnc2cc1N1CCCCC1)c1cnn2cccnc12,,,,,,Ki [8]: 8 nM
CN(C)c1ccc2cc(NC(=O)c3cnn4cccnc34)c(N3CCCCC3)cc2n1,,98,,26,500,
CNC(=O)CN1CCN(c2cc3c(cc2NC(=O)c2cnn4cccnc24)CC(C)(C)O3)CC1,23,60,13,3.5,,
CC1(C)Cc2cc(NC(=O)c3cnn4cccnc34)c(N3CCN(CC(N)=O)CC3)cc2O1,10,25,2.6,2.1,,
CC1(C)Cc2cc(NC(=O)c3cnn4cccnc34)c(N3CCC(C(N)=O)CC3)cc2O1,7.1,53,,,,
CCn1c(N2CCOCC2)nc2cc(N3CCC(CO)CC3)c(NC(=O)c3cnn4cccnc34)cc21,,910,,95,> 10000,
CC1(C)Cc2cc(NC(=O)c3cnn4cccnc34)c(N3CCCC3)cc2O1,7.1,140,,,,
CC1(C)Cc2cc(NC(=O)c3cnn4cc(CO)cnc34)c(N3CCOCC3)cc2O1,15,66,18,,,
CC1(C)Cc2cc(NC(=O)c3cnn4cc(C(F)F)cnc34)c(N3CCOCC3)cc2O1,2.5,1200,,31,,
C[C@@]1(CO)Cc2cc(NC(=O)c3cnn4cccnc34)c(N3CCOCC3)cc2O1,10,,27,,,
CC1(C)Cc2cc(NC(=O)c3cnn4cccnc34)c(N3CCN(CCO)CC3)cc2O1,120,97,8.2,,,
COc1cc2cc[nH]c2cc1NC(=O)c1cnn2cccnc12,,,,,,Ki [8]: 790 nM
